Experimental data taken from US20250275976A1, “Methods of Treating Neuroinflammatory Conditions” (Athira Pharma, Inc., priority 2022, published 2025).
Several values for one entry are separate records, joined by “and”; a condition that tells them apart may be missing. Equal entries are not always repeated. Entries after “also recorded” stand apart in the source; their conditions may differ. Where two headings read alike, the source gives them in different places. Square brackets hold non-standard residues; d marks the D form. Peptide text beside a SMILES is read from it. * marks the point of attachment. pY = N[CH](Cc1ccc(OP(=O)(O)O)cc1)C(=O)O; Hexanoyl = CCCCCC(=O)*; Ahx = NCCCCCC(=O)O

Tests used:
[1] = test system: Rat primary cortical neuron cultures; assay: Neuroprotection of rat primary cortical neurons against neurotoxic insults (Cell Titer-Glo viability); assay type: cell-based; conditions: for Statistical significance vs. insult control (cell viability): Positive Control MK-801 (1 uM)
Description: HGF/MET signaling activation is expected to protect cells, including neurons, from cell death. […] Hydrogen peroxide (H2O2) treatment produces toxic oxidative stress. Bacteria-derived lipopolysaccharide (LPS) treatment induces inflammatory cell death. Treatment with excess glutamate (Glut) produces excitotoxicity in neuron cultures. Treatment with 1-methyl-4-phenylpyridinium (MPP^+) causes cell death by inhibition of mitochondrial function.
Cells were then subjected to individual conditional insults for 24 hours at the following concentrations: H2O2 at 1 uM, LPS at 1 uM, glutamate at 25 uM, or MPP+ at 500 uM. All treatments contained recombinant human HGF (R&D Systems) at a concentration of 5 ng/ml. MK-801 (Dizocilpine) is a pore blocker of the N-Methyl-D-aspartate (NMDA) receptor, a glutamate receptor, and was used as a positive control.
Data was normalized to DMSO+HGF control set at 100% cell viability.
Data are reported as statistical significance vs. insult control, with NS=not significant, +=p<0.05, ++=p<0.01, and +++=p<0.001.

male CD-1 mice = assay: T-maze spontaneous alternation, LPS-induced cognitive deficit; assay type: in vivo, mouse; conditions: for Reversal of LPS-induced cognitive deficit in T-maze (result in words): ANOVA, Fisher's PLSD, p<0.05, doses as in the value; for Spontaneous alternation (%) Mean: LPS 250 μg/kg i.p.; for Recovery (%): saline/vehicle = 100%, LPS/vehicle = 0%
Description: Encephalitis refers to inflammation of the brain that may result in brain swelling fever, headache, confusion, and seizures. The source of neuroinflammation can vary widely, including due to viral, bacterial, parasitic, or fungal infection or due to autoimmune diseases. Lipopolysaccharide (LPS) is a bacterial endotoxin that induces an intense neuroinflammatory reaction and has been associated with cognitive decline. The ability of Compound A19 to reverse cognitive decline induced by LPS in a mouse model of encephalitis was studied using a T-maze assay. In a separate substantially similar assay, Compounds 1a and 5a were also assessed.
Spontaneous and continuous alternation is the innate tendency of rodents to alternate free choices in a T-maze (T-CAT) over a series of successive runs. This sequential procedure relies on working memory and is sensitive to various pharmacological manipulations affecting memory processes. The present studies were conducted to evaluate the abilities of Compound A19, Compound 1a and Compound 5a to reverse LPS-induced cognitive deficit in the T-maze assay.
Compound A19 was dissolved in 0.9% NaCl (saline) and vortexed periodically until complete dissolution and with the pH adjusted between 7.4 and 7.8. Compound A19 was used in concentrations of 0.125, 0.1, 0.05, 0.025 and 0.0125 mg/ml which when given in a volume of 10 ml/kg result in doses of 1.25, 1, 0.5, 0.25 and 0.125 mg/kg, respectively. Compound 1a was dissolved at 160 mg/ml in 100% DMSO and vortexed until complete dissolution. Then the above stock solution was diluted in 20% PEG-400 and 78% 0.9% NaCl, whereby the stock solution comprised 2% of the final solution. Compound 1a was used in concentrations of 0.05, 0.2, 0.8, 1.6 and 3.2 mg/ml which when given in a volume of 10 ml/kg result in doses of 0.5, 2, 8, 16 and 32 mg/kg, respectively. Compound 5a was dissolved at 100 mg/ml in 100% DMSO and vortexed until complete dissolution. Then the above stock solution was diluted in 20% PEG-400 and 78% 0.9% NaCl, whereby the stock solution comprised 2% of the final solution. Compound 5a was used in concentrations of 0.125, 0.25, 0.5, 1 and 2 mg/ml which when given in a volume of 10 ml/kg result in doses of 1.25, 2.5, 5, 10 and 20 mg/kg, respectively.
Memantine was dissolved in saline. Memantine was used in concentration of 0.1 and 0.01 mg/ml, which when given in a volume of 10 ml/kg result in a dose of 1 and 0.1 mg/kg, respectively. Memantine is approved for symptomatic treatment of Alzheimer's disease was used as a reference compound.
LPS was dissolved in saline and prepared at a concentration of 0.0125 mg/ml and given intraperitoneally (i.p.) at a dosage volume of 20 ml/kg to yield a dose of 0.25 mg/kg ([…]).
Four to five weeks old male CD-1 mice (Janvier; Le Genest St Isle - France) were used for the study.
LPS was injected i.p. 2 weeks prior the T-maze trial. Compound 1a was tested at doses of 0.5, 2, 8, 16, and 32 mg/kg administered orally (p.o.) for 14 days with last treatment given 60 min before the T-maze trial. Compound 5a was tested at the doses of 1.25, 2.5, 5, 10, and 20 mg/kg administered orally (p.o.) for 14 days with last treatment given 60 min before the T-maze trial. LPS was injected i.p. 2 weeks prior the T-maze trial.
The T-maze apparatus was made of gray Plexiglas with a main stem (55 cm long×10 cm wide×20 cm high) and two arms (30 cm long×10 cm wide×20 cm high) positioned at a 90-degree angle relative to the main stem. A start box (15 cm long×10 cm wide) was separated from the main stem by a guillotine door. Horizontal doors were also provided to close specific arms during the force choice alternation task.
The experimental protocol consisted of a single session, which started with one “forced-choice” trial, followed by 14 “free-choice” trials. In the “forced-choice” trial, the animal was confined 5 seconds in the start arm and was then released while either the left or right goal arm was blocked by a horizontal door. […]

Prp-TDP43^A315T mice = assay type: in vivo
Procedure: Extranuclear accumulation of TDP-43 protein is a pathological hallmark of a number of neurological diseases. […] Male Prp-TDP43^A315T mice (N=10 mice per group) at 3 weeks of age were administered daily treatments of test compounds. Compound A19 was administered via subcutaneous injection, and Compound 5a and Compound 6a were administered via oral gavage. After 2 months of treatment, plasma samples were collected for cytokine quantification. […] Plasma IL-6 and TNF-α cytokine expression levels were determined using the ELISA method. The submandibular vein was punctured with a lancet and a blood drop was collected directly on a microtube containing EDTA as anticoagulant. Samples were centrifuged for 15 minutes at 1000×g at 4° C. within 20 minutes of collection. 20 μl of plasma supernatant was stored at −20° C. before ELISA analysis.
Plasma was diluted at 1:10 in sterile PBS, and IL-6 and TNF-α quantification was performed in duplicate for each animal using 10 μl of sample per well in 96-well plates using the ELISA method (IL-6: Signa-Aldrich Cat #RAB0308, TNF-α: Sigma-Aldrich Cat #RAB0477). Statistical analysis was carried out by 2-way ANOVA with Dunnett's multiple comparisons post-test with compound-treated samples compared to vehicle-treated samples.

[2] = test system: Rat primary cortical neuron cultures; assay: Neuroprotection of rat cortical neurons against LPS challenge (Cell Titer-Glo); conditions: at at least one dose tested
[3] = test system: Rat primary cortical neuron cultures; conditions: LPS 24 h
[4] = insult alone 24 h (H2O2 1 uM, Glutamate 25 uM, LPS 1 uM, MPP+ 500 uM), Compound 1a study, Table 2
[5] = insult alone (H2O2 1 uM, Glutamate 25 uM, LPS 1 uM, MPP+ 500 uM), A19 active metabolite study, Table 3
[6] = 2 months of treatment, doses as in the value

OO [Compound H2O2, Hydrogen peroxide, reference compound] was tested, and the “Insult effect (% viability vs vehicle)” value [1, 4] was 64.23% and the “Insult effect (% viability vs vehicle)” value [1, 5] was 59.35%.

C[n+]1ccc(-c2ccccc2)cc1 [MPP+, 1-methyl-4-phenylpyridinium, reference compound] was tested, and the “Insult effect (% viability vs vehicle)” value [1, 4] was 49.85% and the “Insult effect (% viability vs vehicle)” value [1, 5] was 54.3%.

In the case of N[C@@H](CCC(=O)O)C(=O)O [Glutamate, glutamate, reference compound], the “Insult effect (% viability vs vehicle)” value [1, 4] is reported as 49.55% and the “Insult effect (% viability vs vehicle)” value [1, 5] is reported as 54.4%.

With CC12CC3CC(C)(C1)CC(N)(C3)C2 [Memantine, reference compound] the “Reversal of LPS-induced cognitive deficit in T-maze (result in words)” value (male CD-1 mice) was “significant at both doses”, the “Spontaneous alternation (%) Mean” value (male CD-1 mice; Memantine 0.1 mg/kg i.p. daily 14 days) was 64% and 63.6% and the “Recovery (%)” value (male CD-1 mice; Memantine 0.1 mg/kg i.p.) was 76%. The “Spontaneous alternation (%) Mean” value (male CD-1 mice; Memantine 1 mg/kg i.p. daily 14 days) was 54% and 54.3% and the “Recovery (%)” value (male CD-1 mice; Memantine 1 mg/kg i.p.) was 38%.

With C[C@]12N[C@H](Cc3ccccc31)c1ccccc12 [MK-801, Dizocilpine, reference compound] the “Statistical significance vs. insult control (cell viability)” value ([1]; Glutamate (25 uM) insult) was “+++ (+++=p<0.001)”, the “Statistical significance vs. insult control (cell viability)” value ([1]; H2O2 (1 uM) insult) was “+++ (+++=p<0.001)” and the “Statistical significance vs. insult control (cell viability)” value ([1]; LPS (1 uM) insult) was “+++ (+++=p<0.001)”. For the same compound, the “Statistical significance vs. insult control (cell viability)” value ([1]; MPP+ (500 uM) insult) was “+++ (+++=p<0.001)”.

In the case of CCCCCC(=O)NC(Cc1ccc(OP(=O)(O)O)cc1)C(=O)NC(C(=O)NCCCCCC(N)=O)C(C)CC (centres unmarked) [Compound A19] (Hexanoyl-[pY]-Ile-[Ahx]-NH2; configuration not given here), the “Significant decrease in plasma cytokine expression after 2 months of treatment: IL-6” value (Prp-TDP43^A315T mice; 0.005 mg/kg SC daily) is reported as “++++ (++++ = p < 0.0001)”, the “Significant decrease in plasma cytokine expression after 2 months of treatment: TNF-α” value (Prp-TDP43^A315T mice; 0.005 mg/kg SC daily) is reported as “++++ (++++ = p < 0.0001)” and the “Significant decrease in plasma cytokine expression after 2 months of treatment: TNF-α” value (Prp-TDP43^A315T mice; 0.01 mg/kg SC daily) is reported as “+ (+ = p < 0.05)”. The “Significant decrease in plasma cytokine expression after 2 months of treatment: IL-6” value (Prp-TDP43^A315T mice; 0.03 mg/kg SC daily) was “+ (+ = p < 0.05)”, the “Plasma IL-6 expression (result in words)” value (Prp-TDP43^A315T mice; [6]) was “significantly reduced TL-6 expression at doses of 0.005, 0.01, and 0.03 mg/kg” and the “Plasma TNF-α expression (result in words)” value (Prp-TDP43^A315T mice; [6]) was “significantly reduced TNF-α expression at 0.005 and 0.01 mg/kg”. The “Spontaneous alternation (%) Mean” value (male CD-1 mice; A19 0.125 mg/kg s.c. daily 14 days, 0.125 mg/kg) was 42% and 42.1%, the “Recovery (%)” value (male CD-1 mice; A19 0.125 mg/kg s.c., 0.125 mg/kg) was -12% and the “Spontaneous alternation (%) Mean” value (male CD-1 mice; A19 0.25 mg/kg s.c. daily 14 days, 0.25 mg/kg) was 60%. For the same compound, the “Recovery (%)” value (male CD-1 mice; A19 0.25 mg/kg s.c.) was 62%, the “Spontaneous alternation (%) Mean” value (male CD-1 mice; A19 0.5 mg/kg s.c. daily 14 days, 0.5 mg/kg) was 64% and 64.3% and the “Recovery (%)” value (male CD-1 mice; A19 0.5 mg/kg s.c.) was 79%. For the same compound, the “Spontaneous alternation (%) Mean” value (male CD-1 mice; A19 1 mg/kg s.c. daily 14 days, 1 mg/kg) was 61% and 60.7%, the “Recovery (%)” value (male CD-1 mice; A19 1 mg/kg s.c.) was 65% and the “Spontaneous alternation (%) Mean” value (male CD-1 mice; A19 1.25 mg/kg s.c. daily 14 days, 1.25 mg/kg) was 61% and 60.7%. For the same compound, the “Recovery (%)” value (male CD-1 mice; A19 1.25 mg/kg s.c., 1.25 mg/kg) was 58% and the “Reversal of LPS-induced cognitive deficit in T-maze (result in words)” value (male CD-1 mice) was “significant at all doses except at 0.125 mg/kg; also recorded: reversed the LPS-induced cognitive disruption”.

For CCC(C)CN1CC2N(C(=O)c3ccc(OC(F)F)cc3)CCC(=O)N2[C@@H](C)C1=O (some centres unmarked) [Compound 2a], the “Protection of primary neurons from LPS-stimulated inflammatory toxicity (in words)” value [2] was “protected primary neurons from LPS-stimulated inflammatory toxicity”, the “Significance of neuroprotection vs 1 uM LPS” value (from here on “Significance … vs 1 uM LPS”) ([3]; dose 0.1 nM) was “+++ (+++ indicates p<0.001)” and the “Significance … vs 1 uM LPS” value ([3]; dose 1 nM) was “+++ (+++ indicates p<0.001)”. For the same compound, the “Significance … vs 1 uM LPS” value ([3]; dose 10 nM) was “+++ (+++ indicates p<0.001)”, the “Significance … vs 1 uM LPS” value ([3]; dose 100 nM) was “+++ (+++ indicates p<0.001)” and the “Significance … vs 1 uM LPS” value ([3]; dose 1 μM) was “+++ (+++ indicates p<0.001)”.
